Results on eleven compounds are retold here after ChEMBL document CHEMBL5154782, “Discovery of Potent PROTACs Targeting EGFR Mutants through the Optimization of Covalent EGFR Ligands” (J Med Chem, 2022).

Active and inactive are the calls of the source. No cut-off for these calls is given here. A value given as a limit tells only on which side of the number the result lay.

Assay [1] has as its target von Hippel-Lindau disease tumor suppressor/Epidermal growth factor receptor (Homo sapiens, UniProt P00533+P40337, L858R). The assay is described as follows: Protac activity at VHL/EGFR L858R mutant (unknown origin) assessed as inhibition of EGFR incubated for 40 mins in presence of ATP by Kinase Glo luminescence assay. Type of assay: protein assay.
Assay [2] concerns the target von Hippel-Lindau disease tumor suppressor/Epidermal growth factor receptor (Homo sapiens, UniProt P00533+P40337, L858R/T790M). The assay is described as follows: Protac activity at VHL/EGFR L858R/T790M mutant (unknown origin) assessed as inhibition of EGFR incubated for 40 mins in presence of ATP by Kinase Glo luminescence assay. The format is protein assay.
Assay [3] concerns NCI-H1975. The assay is described as follows: Antiproliferative activity against human NCI-H1975 cells expressing EGFR L858R/T790M mutant assessed as inhibition of cell proliferation incubated for 72 hrs by MTT assay. The format is functional, cell-based. As to conditions: NCI-H1975, 72 h.
Assay [4] has as its system HCC827. The assay is described as follows: Antiproliferative activity against human HCC827 cells expressing EGFR deletion19 mutant assessed as inhibition of cell proliferation incubated for 72 hrs by MTT assay. Type of assay: functional, cell-based. The following applies: HCC827, 72 h.
A further assay relates to A-431. Briefly: Antiproliferative activity against human A-431 cells expressing EGFR wildtype assessed as inhibition of cell proliferation incubated for 72 hrs by MTT assay. Type of assay: functional, cell-based. As to conditions: A-431, 72 h.
Assay [5] addresses von Hippel-Lindau disease tumor suppressor/Epidermal growth factor receptor (Homo sapiens, UniProt P00533+P40337). The assay is described as follows: Protac activity at VHL/EGFR deletion19 mutant in human HCC827 cells assessed as induction of EGFR degradation. Type of assay: cell-based.
For assay [6], the system named is HCC827. Briefly: Antiproliferative activity against human HCC827 cells expressing EGFR deletion19 mutant assessed as inhibition of cell proliferation. The format is functional, cell-based.
The test system of assay [7] is von Hippel-Lindau disease tumor suppressor/Epidermal growth factor receptor (Homo sapiens), P00533+P40337 [L858R,T790M]. Briefly: Protac activity at VHL/EGFR L858R/T790M mutant in human NCI-H1975 cells assessed as induction of EGFR degradation at 100 nM incubated for 24 hrs by Western blot analysis relative to control. Type of assay: cell-based.
In assay [8] the test system is HCC827. The assay is described as follows: Antiproliferative activity against human […] assessed as inhibition of cell proliferation incubated for 72 hrs by MTT assay. The format is functional, cell-based. The following applies: HCC827, 72 h.
The subject of assay [9] is von Hippel-Lindau disease tumor suppressor/Epidermal growth factor receptor (Homo sapiens), P00533+P40337 [L858R,T790M]. The assay is described as follows: Protac activity at VHL/EGFR L858R/T790M mutant in human NCI-H1975 cells assessed as induction of EGFR degradation at 10 nM incubated for 24 hrs by Western blot analysis relative to control. Type of assay: cell-based.

Assay [10] deals with von Hippel-Lindau disease tumor suppressor/Epidermal growth factor receptor (Homo sapiens), P00533+P40337 [UNDEFINED MUTATION]. Briefly: Protac activity at VHL/EGFR/deletion19 in human HCC827 cells assessed as induction of EGFR degradation at 3 nM incubated for 24 hrs by Western blot analysis relative to control. The format is cell-based.
The test system is the same in assay [11]. Briefly: Protac activity at VHL/EGFR/deletion19 in human HCC827 cells assessed as induction of EGFR degradation at 30 nM incubated for 24 hrs by Western blot analysis relative to control. Type of assay: cell-based.
In assay [12] the test system is NCI-H1975. The assay is described as follows: Antiproliferative activity against human NCI-H1975 cells expressing EGFR L858R/T790M mutant assessed as inhibition of cell proliferation. The format is functional, cell-based.
For assay [13], the system named is von Hippel-Lindau disease tumor suppressor/Epidermal growth factor receptor (Homo sapiens), P00533+P40337 [L858R,T790M]. Briefly: Protac activity at VHL/EGFR L858R/T790M mutant in human NCI-H1975 cells assessed as induction of EGFR degradation at 1000 nM incubated for 24 hrs by Western blot analysis relative to control. Type of assay: cell-based.
Assay [14] shares this test system. The assay is described as follows: Protac activity at VHL/[…] cells assessed as induction of EGFR degradation at 100 nM incubated for 24 hrs by Western blot analysis relative to control. The format is cell-based.
Assay [15] has the same test system. The assay is described as follows: Protac activity at VHL/[…] cells assessed as induction of EGFR degradation at 1000 nM incubated for 24 hrs by Western blot analysis relative to control. Type of assay: cell-based.
Assay [16] has as its system NCI-H1975. Briefly: Inhibition of colony formation in human NCI-H1975 cells at 1 to 30 nM incubated for 10 days by crystal violet based assay. The format is functional, cell-based. As to conditions: dose 1-30 nM, time 10.0 day.
The subject of assay [17] is HCC827. Briefly: Inhibition of colony formation in human HCC827 cells at 1 to 30 nM incubated for 10 days by crystal violet based assay. The format is functional, cell-based. The following applies: dose 1-30 nM, time 10.0 day.

As to `C=CC(=O)N1CC[C@H](n2c(Nc3ccccc3)nc3cnc(Nc4ccc(N5CCN(C)CC5)cc4)nc32)C1`, the IC50 in [1] was found to be 10 nM; in assay [2], 23 nM; in the assay with NCI-H1975 [3] it was 15 nM; in the assay on HCC827 [4] it was 0.47 nM; in the assay with A-431, 2900 nM.

For `O=C1CCC(N2Cc3c(NC(=O)CCCCCCN4CCN(c5ccc(Nc6cc7c(N8CCC(CO)CC8)nc(Nc8ccc(F)cc8)nc7cn6)nc5)CC4)cccc3C2=O)C(=O)N1` (stereo not given), in assay [5], the DC50 turned out to be 34.8 nM. Further, in the assay on HCC827 [6], the IC50 worked out at 220 nM.

On to `C=CC(=O)N1CC[C@H](n2c(Nc3ccccc3)nc3cnc(Nc4ccc(N5CCN(CCCCCCC(=O)N[C@H](C(=O)N6C[C@H](O)C[C@H]6C(=O)NCc6ccc(-c7scnc7C)cc6)C(C)(C)C)CC5)cc4)nc32)C1`, for which the Activity turned out to be 79% in assay [7], 38% in assay [9], 65% in [10] and 81% in [11]. Also, the IC50 in the assay on HCC827 [8] was 1.86 nM; with NCI-H1975 [3], 44 nM; with HCC827 [4], 1.66 nM; in the assay with A-431 it was over 10000 nM.

In the case of `C=CC(=O)Nc1cccc(-n2c(=O)cc(C)c3cnc(Nc4ccc(N5CCN(CCCCCC(=O)N[C@H](C(=O)N6C[C@H](O)C[C@H]6C(=O)NCc6ccc(-c7scnc7C)cc6)C(C)(C)C)CC5)cc4OC)nc32)c1`, in the assay on NCI-H1975 [12], the IC50 worked out at 510 nM.

As to `C=CC(=O)N1CCC[C@@H](n2c(Nc3ccccc3)nc3cnc(Nc4ccc(N5CCN(CCCCCCCC(=O)N[C@H](C(=O)N6C[C@H](O)C[C@H]6C(=O)N[C@@H](C)c6ccc(-c7scnc7C)cc6)C(C)(C)C)CC5)cc4)nc32)C1`, the IC50 in the assay on HCC827 [8] was 6.49 nM; in the assay on NCI-H1975 [3], 1060 nM.

Turning to `C=CC(=O)N1CC[C@@H](n2c(Nc3ccccc3)nc3cnc(Nc4ccc(N5CCN(CCCCCCC(=O)N[C@H](C(=O)N6C[C@H](O)C[C@H]6C(=O)NCc6ccc(-c7scnc7C)cc6)C(C)(C)C)CC5)cc4)nc32)C1`, the 50% inhibitory concentration (IC50) was 12.4 nM in the assay with HCC827 [8] and 550 nM in the assay on NCI-H1975 [3].

Consider `COc1cc(N(C)CCN(C)C)c(NC(=O)/C(C#N)=C/C(C)(C)NC(=O)CCCCCCC(=O)N[C@H](C(=O)N2C[C@H](O)C[C@H]2C(=O)NCc2ccc(-c3scnc3C)cc2)C(C)(C)C)cc1Nc1nccc(-c2cn(C)c3ccccc23)n1`, for which the Activity in [7] is under 20%; in assay [13], under 20%; in [14], under 20%; in assay [15] it was 26%. Moreover, the IC50 was found to be 857 nM in [2], 2360 nM in the assay on NCI-H1975 [3] and 544 nM with HCC827 [4].

As to `C=CC(=O)N1CCC[C@H](n2c(Nc3ccccc3)nc3cnc(Nc4ccc(N5CCN(CCCCCCCC(=O)N[C@H](C(=O)N6C[C@H](O)C[C@H]6C(=O)NCc6ccc(-c7scnc7C)cc6)C(C)(C)C)CC5)cc4)nc32)C1`, the Activity is 74% in assay [7], under 20% in assay [9], 69% in assay [10] and 78% in [11]. The inhibition result with NCI-H1975 [16] and in the assay with HCC827 [17] was “Active” in each case. For the same compound, the IC50 in the assay on NCI-H1975 [3] is 39 nM; with HCC827 [4], 2.55 nM; in the assay on A-431 it was over 10000 nM.

For `C=CC(=O)N1CCC[C@H](n2c(Nc3ccccc3)nc3cnc(Nc4ccc(N5CCN(C)CC5)cc4)nc32)C1`, the Activity in [7] is under 20%. Further, the IC50 in [1] turned out to be 21 nM; in assay [2], 38 nM; in the assay with NCI-H1975 [3] it was 12 nM; in the assay on HCC827 [4], 0.33 nM; in the assay on A-431 it was 7090 nM.

For `COc1cc2ncnc(Nc3ccc(F)c(Cl)c3)c2cc1OCCCCCOCCOCCC(=O)N[C@H](C(=O)N1C[C@H](O)C[C@H]1C(=O)NCc1ccc(-c2scnc2C)cc1)C(C)(C)C`, the DC50 in assay [5] stood at 11.7 nM.

Turning to `Cc1ncsc1-c1ccc(CNC(=O)[C@@H]2C[C@@H](O)CN2C(=O)[C@@H](NC(=O)CCCCCCN2CCN(c3ccc(Nc4ncc5nc(Nc6ccccc6)n(C6CCCC6)c5n4)cc3)CC2)C(C)(C)C)cc1`, the DC50 in assay [5] was 0.51 nM. In addition, the IC50 with HCC827 [6] is 0.76 nM.
